Assay results reported in patent publication US20210180013A1, “IMPROVED METHODS FOR INDUCING TISSUE REGENERATION AND SENOLYSIS IN MAMMALIAN CELLS” (AgeX Therapeutics, Inc., priority 2018, published 2021).
“And” between values parts separate entries of the source, which are not always exact repeats. Equal values may be shown once.

Legend:
4D20.8 and MSCs = experiment: TUNEL apoptosis assay, embryonic vs adult mesenchymal cells; format: cell-based, human; details: 3.7 nM; 24 hours; 4D20.8 vs MSC; FIG. 7
Method: (§1) Optimized conditions were identified for distinguishing the increased apoptosis anticipated by cells with a pre-fetal pattern of gene expression. Embryonic and adult-derived mesenchymal (4D20.8 and MSCs respectively) and vascular endothelial cells (30MV2-6 and HAEC respectively) were treated with diverse stimuli for apoptosis including: Camptothecin (CPT), H2O2, and Thapsigargin (TG) at two concentrations each as well as a vehicle control. The compounds were applied for 24 hours prior to analysis. After treatment apoptosis was monitored via TUNEL staining using the In Situ Cell Death Detection kit (Roche, cat #12156792910) following the manufacturer's instructions. […] This assay is therefore useful in determining the effectiveness of iTR factors in inducing senolysis in aged cells and in CSCs.

30MV2-6 and HAEC = experiment: TUNEL apoptosis assay, embryonic vs adult vascular endothelial cells; format: cell-based, human; details: 3.7 nM; 24 hours; 30MV2-6 vs HAEC; FIG. 7
Method: as §1

BJ-TERT fibroblast cells = experiment: Scratch assay of tissue regeneration and cell proliferation; format: cell-based; details: 2 weeks treatment; 800 um scratch; % filling 16 hours later
Method: BJ-TERT fibroblast cells at passage 8 were seeded at 50,000 cells/well on 6 well plates in DMEM 10% FBS. The following day the cells were treated with various cocktails listed below for 2 weeks:
Following treatment, at confluence an 800 um scratch was made and % filling evaluated 16 hours later. Filling of scratch of treated cells were compared to that of control.

[1] = system: Xgene fibroblasts (human foreskin); experiment: Cell number of early and late passage fibroblasts (senolytic activity); format: cell-based; details: for cell number, Avg / cell number, single wells: 20,000 cells/well seeded; for cell number, Avg / cell number, single wells / cell number compared to controls, in words: 1 week; for Fold change of cell number: relative to control (growth medium alone)
Method: Xgene fibroblasts (human foreskin, obtained from Xgene, Sausilito Calif.) were seeded at early (P9) and late (P33) passage at 20,000 cells/well (0.1% gelatin coated 24 well plate) in growth medium (DMEM+10% FBS). The following day they were refed medium with the additive listed below for 1 week and fed every other day and then counted.

COX7A1 = experiment: qPCR of COX7A1 after valproic acid treatment; format: cell-based; details: 28 days, adult derived dermal fibroblasts
Method: Adult derived dermal fibroblasts were cultured in DMEM 10% FBS in wells of 6 well plates and treated with valproic acid at 0.5 mM and 1 mM for 28 days. On day 28 the media was removed, the cells were washed with PBS, and then lysed using RLT with beta-mercaptoethanol (Qiagen Cat 79216). Total RNA was extracted using Qiagen RNeasy mini-kits (Qiagen Cat 74106) following manufacturers instructions. Then cDNA was prepared using ThermoFisher superscript III (Cat. 18080044). qPCR was run on an Applied Biosystems 7500 Real-Time PCR System employing SDSv2.3 software to evaluate the expression of COX7A1 (which is a definitive indicator of adult phenotype) relative to GAPDH of the treated line relative to the untreated line.

Row | Molecule | apoptosis (TUNEL), embryonic mesenchymal cells compared to adult counterparts (4D20.8 and MSCs) | apoptosis (TUNEL), embryonic endothelial cells compared to adult counterparts (30MV2-6 and HAEC) | Fold Increase Over Control (filling of scratch) (BJ-TERT fibroblast cells) | cell number, Avg ([1]; early passage P9) | cell number, single wells ([1]; early passage P9, listed as Cond. B) | Fold change of cell number ([1]; early passage P9) | cell number compared to controls, in words ([1]; late passage (P33)) | cell number, Avg ([1]; late passage P33) | cell number, single wells ([1]; late passage P33, listed as Cond. B) | Fold change of cell number ([1]; late passage P33) | COX7A1 expression (normalized to GAPDH) compared to control (untreated) (COX7A1; 0.5 mM) | COX7A1 expression (normalized to GAPDH) compared to control (untreated) (COX7A1; 1 mM) | cell number compared to controls, in words ([1]; early passage (P9)) | cell number, single wells ([1]; early passage P9, listed as Cond A) | cell number compared to controls, in words ([1]; late passage (P33), listed as condition A) | cell number, single wells ([1]; late passage P33, listed as Cond A)
1 | C/C=C(/C)C(=O)O[C@H]1C(C)=C2[C@H]([C@@H]1OC(=O)CCCCCCC)[C@@](C)(OC(C)=O)C[C@H](OC(=O)CCC)[C@@]1(O)[C@H]2OC(=O)[C@@]1(C)O [Thapsigargin] | robust statistically-significant increase in apoptosis | robust statistically-significant increase in apoptosis | – | – | – | – | – | – | – | – | – | – | – | – | – | –
2 | CCCC(CCC)C(=O)O [valproic acid] | – | – | 1.4 | 226,000 | 228,000 and 224,000 | 1.2 | differential effect on late passage cells | 67,000 | 62,000 and 72,000 | 1.0 | negligible effect | 0.001 | – | – | – | –
3 | A: LIN28A-11R (LD Biopharma HTF 0046) 4 ug/ml (protein, UniProt Q9H9Z2 2-209, looked up, C-terminal 11-arginine cell-penetrating tag, LIN28A-11R (LD Biopharma HTF 0046) 4 ug/ml) Protein lin-28 homolog A: GSVSNQQFAGGCAKAAEEAPEEAPEDAARAADEPQLLHGAGICKWFNVRMGFGFLSMTARAGVALDPPVDVFVHQSKLHMEGFRSLKEGEAVEFTFKKSAKGLESIRVTGPGGVFCIGSERRPKGKSMQKRRSKGDRCYNCGGLDHHAKECKLPPQPKKCHFCQSISHMVASCPLKAQQGPSAQGKPTYFREEEEEIHSPTLLPEAQN | – | – | 1.2 | 254,000 | – | 1.3 | differential effect on late passage cells | 48,000 | – | 0.8 | – | – | heightened cell number | 220,000 and 288,000 | reduced cell number | 46,000 and 50,000
